In US20260042764A1, “COMPOSITIONS AND METHODS FOR INHIBITION OF KRAS” (TheRas, Inc., priority 2022, published 2026):

Assays:
[1] = target: T1, Avi-KRAS G12R (1-169) GppNHp/RAF1 RBD-3xFLAG (52-151) (Homo sapiens, UniProt P01116, G12R); test: Raf1-KRAS G12R-GppNHP disruption HTRF assay (Biological Example 1); assay type: binding
T1 construct: Avi-KRAS G12R (1-169)
Method in brief: (§1)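 Using HTRF, the loss of KRAS–effector RAF1 complex was quantified in 50 mM Tris pH 7.5 buffer with 100 mM NaCl and 0.1% BSA. The protein step and reagent step ran 1 h each at room temperature. Activity normalized with DMSO taken as 100%.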

[2] = target: T2, Avi-KRAS WT (1-169) GppNHp/RAF1 RBD-3xFLAG (52-151) (Homo sapiens, UniProt P01116); test: Raf1-KRAS WT-GppNHP disruption HTRF assay (Biological Example 1); assay type: binding
T2 construct: Avi-KRAS WT (1-169)
T2 sequence (P01116 1-169 isoform P01116-2): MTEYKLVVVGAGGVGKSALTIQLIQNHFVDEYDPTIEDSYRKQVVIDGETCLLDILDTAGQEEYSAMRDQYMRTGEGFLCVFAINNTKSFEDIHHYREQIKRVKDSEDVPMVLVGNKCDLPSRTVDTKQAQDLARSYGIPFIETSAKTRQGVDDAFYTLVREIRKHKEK
Method in brief: as §1

[3] = target: T3, Avi-KRAS G12D (2-169) GTP/RAF1 RBD-3xFLAG (51-131) (Homo sapiens, UniProt P01116, G12D); test: Raf1-KRAS G12D-GTP disruption HTRF assay (Biological Example 3); assay type: binding; settings: KRAS G12D, GTP-loaded
T3 construct: Avi-KRAS G12D (2-169)
T3 sequence (P01116 2-169 isoform P01116-2 G12D): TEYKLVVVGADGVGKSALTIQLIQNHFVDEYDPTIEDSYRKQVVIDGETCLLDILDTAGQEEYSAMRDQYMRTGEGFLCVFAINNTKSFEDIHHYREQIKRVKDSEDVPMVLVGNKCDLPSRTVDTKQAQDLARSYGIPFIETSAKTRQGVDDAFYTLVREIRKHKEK
Method in brief: (§2)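 HTRF PPI read-out (ex 320 nm, em 615 nm) after 1 h RT incubation with shaking; data as % activity vs DMSO (100%), IC50 from curve fit. Complex 50 nM, RBD reagent 75 nM; compound 30-0.005 μM, 3-fold.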

[4] = target: T4, Avi-KRAS WT (2-169) GTP/RAF1 RBD-3xFLAG (51-131) (Homo sapiens, UniProt P01116); test: Raf1-KRAS WT-GTP disruption HTRF assay (Biological Example 3); assay type: binding; settings: KRAS WT, GTP-loaded
T4 construct: Avi-KRAS WT (2-169)
T4 sequence (P01116 2-169 isoform P01116-2): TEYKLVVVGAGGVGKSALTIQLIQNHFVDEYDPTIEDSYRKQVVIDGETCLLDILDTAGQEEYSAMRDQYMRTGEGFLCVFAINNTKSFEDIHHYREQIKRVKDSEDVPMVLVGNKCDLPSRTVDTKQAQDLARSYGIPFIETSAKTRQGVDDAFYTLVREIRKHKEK
Method in brief: as §2

SW620 cells (KRAS G12V) = test: Cell-based pERK HTRF assay in SW620 cell (Biological Example 4)
Method in brief: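 In SW620 cells grown in RPMI with 10% FBS, a 4 h compound treatment (0.25% DMSO, 9-point curve from 1 μM) preceded lysis. Phospho-ERK levels were then read by time-resolved FRET at 615 nm emission.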

[5] = Homo sapiens, SW-620, SW620 (KRAS G12V) cells
[6] = SW620 (KRAS G12V) cells, pERK HTRF
[7] = KRAS G12R, GppNHp-loaded, class symbols
[8] = KRAS WT, GppNHp-loaded, class symbols
[9] = Homo sapiens, SW-620, SW620 (KRAS G12V) cells, pERK HTRF, class symbols
[10] = KRAS G12R, GppNHp-loaded, Table 11
[11] = KRAS WT, GppNHp-loaded, Table 11
[12] = Homo sapiens, SW-620, SW620 (KRAS G12V) cells, pERK HTRF

T1 sequence (P01116 1-169 isoform P01116-2 G12R): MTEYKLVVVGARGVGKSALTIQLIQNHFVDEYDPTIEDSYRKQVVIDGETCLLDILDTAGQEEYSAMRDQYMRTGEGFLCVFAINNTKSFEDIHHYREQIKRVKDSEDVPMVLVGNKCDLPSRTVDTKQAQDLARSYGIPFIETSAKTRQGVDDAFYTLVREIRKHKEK

IC50 ([1]; KRAS G12R-GppNHp/RAF1 RBD HTRF)	IC50 ([2]; KRAS WT-GppNHp/RAF1 RBD HTRF)	IC50 [3]	IC50 [4]	IC50 (SW620 cells (KRAS G12V); [5])	IC50 [1, 7]	IC50 [2, 8]	IC50 (SW620 cells (KRAS G12V); [9])	IC50 (SW620 cells (KRAS G12V); [12])	further results	SMILES
< 100 nM	< 100 nM	100 to 1000 nM	100 to 1000 nM	< 100 nM	–	–	–	–	IC50 (SW620 cells (KRAS G12V); [6]): < 100 nM	C[C@@H]1[C@H](N(C)c2nc(OC[C@@]34CCCN3C[C@H](F)C4)nc3c(F)c(-c4ccc(F)c5sc(N)c(C#N)c45)c(C(F)(F)F)cc23)CCN1C(=O)C1CC1 (atropisomer, axis not shown) [Compound 333]
< 100 nM	< 100 nM	100 to 1000 nM	100 to 1000 nM	< 100 nM	–	–	–	–	IC50 (SW620 cells (KRAS G12V); [6]): < 100 nM	CCC(=O)N1CC[C@@H](N(C)c2nc(OC[C@@]34CCCN3C[C@H](F)C4)nc3c(F)c(-c4ccc(F)c5sc(N)c(C#N)c45)c(C(F)(F)F)cc23)[C@H]1C (atropisomer, axis not shown) [Compound 335]
–	–	≤ 100 nM	≤ 100 nM	< 100 nM	< 100 nM	< 100 nM	< 100 nM	–	–	CCN(c1nc(OC[C@@]23CCCN2C[C@H](F)C3)nc2c(F)c(-c3ccc(F)c4sc(N)c(C#N)c34)c(C(F)(F)F)cc12)[C@H]1CCN(C(=O)[C@H]2CCO2)C1 (atropisomer, axis not shown) [Compound 577]
–	–	≤ 100 nM	100 to 1000 nM	< 100 nM	< 100 nM	< 100 nM	< 100 nM	–	–	CCN(c1nc(OC[C@@]23CCCN2C[C@H](F)C3)nc2c(F)c(-c3ccc(F)c4sc(N)c(C#N)c34)c(C(F)(F)F)cc12)[C@H]1CCN(C(=O)C2CC2)[C@@H]1C (atropisomer, axis not shown) [Compound 579]
–	–	–	–	–	< 100 nM	< 100 nM	< 100 nM	–	–	CCN(c1nc(OC[C@@]23CCCN2C[C@H](F)C3)nc2c(F)c(-c3ccc(F)c4sc(N)c(C#N)c34)c(C(F)(F)F)cc12)[C@H]1CCN(C(=O)c2ncco2)C1 (atropisomer, axis not shown) [Compound 584]
–	–	100 to 1000 nM	100 to 1000 nM	< 100 nM	< 100 nM	< 100 nM	< 100 nM	–	–	CCN(c1nc(OC[C@@]23CCCN2C[C@H](F)C3)nc2c(F)c(-c3ccc(F)c4sc(N)c(C#N)c34)c(C(F)(F)F)cc12)[C@H]1C[C@@H](C)N(C(=O)C2COC2)C1 (atropisomer, axis not shown) [Compound 586]
–	–	≤ 100 nM	100 to 1000 nM	< 100 nM	< 100 nM	< 100 nM	< 100 nM	–	–	C[C@H](c1cccnc1N)N(C)c1nc(OC[C@@]23CCCN2C[C@H](F)C3)nc2c(F)c(-c3ccc(F)c4sc(N)c(C#N)c34)c(C(F)(F)F)cc12 (atropisomer, axis not shown) [Compound 600]
–	–	≤ 100 nM	100 to 1000 nM	< 100 nM	< 100 nM	< 100 nM	< 100 nM	–	–	CCN(c1nc(OC[C@@]23CCCN2C[C@H](F)C3)nc2c(F)c(-c3ccc(F)c4sc(N)c(C#N)c34)c(C(F)(F)F)cc12)[C@H]1CCN(C(=O)[C@@H]2CCO2)C1 (atropisomer, axis not shown) [Compound 603]
–	–	–	–	–	< 100 nM	100 to 1000 nM	< 100 nM	–	–	CCN(c1nc(OC[C@@]23CCCN2C[C@H](F)C3)nc2c(F)c(-c3ccc(F)c4sc(N)c(C#N)c34)c(C(F)(F)F)cc12)[C@H]1C[C@H](C)N(C(=O)[C@@H]2CC2(F)F)C1 (atropisomer, axis not shown) [Compound 751]
–	–	–	–	–	–	–	–	< 100 nM	IC50 [1, 10]: 100 to 1000 nM; IC50 [2, 11]: 100 to 1000 nM	N#Cc1c(N)sc2c(F)ccc(-c3c(C(F)(F)F)cc4c(N5CC6CC5CO6)nc(OC[C@@]56CCCN5C[C@H](F)C6)nc4c3F)c12 (stereo partly drawn) [Compound 147]
–	–	–	–	–	–	–	–	< 100 nM	IC50 [1, 10]: 100 to 1000 nM; IC50 [2, 11]: 100 to 1000 nM	N#Cc1c(N)sc2c(F)ccc(-c3c(C(F)(F)F)cc4c(N5CCC[C@@H](O)C5)nc(OC[C@@]56CCCN5C[C@H](F)C6)nc4c3F)c12 [Compound 234]
–	–	–	–	–	–	–	–	< 100 nM	IC50 [1, 10]: < 100 nM; IC50 [2, 11]: < 100 nM	C[C@@H]1[C@H](N(C)c2nc(OC[C@@]34CCCN3C[C@H](F)C4)nc3c(F)c(-c4ccc(F)c5sc(N)c(C#N)c45)c(C(F)(F)F)cc23)CCN1C(=O)C1CC1 [Compound 258]
–	–	–	–	–	–	–	–	< 100 nM	IC50 [1, 10]: < 100 nM; IC50 [2, 11]: < 100 nM	CCC(=O)N1CC[C@@H](N(C)c2nc(OC[C@@]34CCCN3C[C@H](F)C4)nc3c(F)c(-c4ccc(F)c5sc(N)c(C#N)c45)c(C(F)(F)F)cc23)[C@H]1C [Compound 260]
100 to 1000 nM	100 to 1000 nM	–	–	–	–	–	–	< 100 nM	–	CCN(c1nc(OC[C@@]23CCCN2C[C@H](F)C3)nc2c(F)c(-c3ccc(F)c4sc(N)c(C#N)c34)c(Cl)cc12)[C@@H]1CCN(C(C)=O)[C@@H]1C [Compound 323]
100 to 1000 nM	100 to 1000 nM	–	–	–	–	–	–	< 100 nM	–	CCN(c1nc(OC[C@@]23CCCN2C[C@H](F)C3)nc2c(F)c(-c3ccc(F)c4sc(N)c(C#N)c34)c(Cl)cc12)[C@@H]1CCN(C(=O)C2CC2)[C@@H]1C [Compound 337]
100 to 1000 nM	100 to 1000 nM	–	–	–	–	–	–	< 100 nM	–	CN(Cc1cccnc1N)c1nc(OC[C@@]23CCCN2C[C@H](F)C3)nc2c(F)c(-c3ccc(F)c4sc(N)c(C#N)c34)c(C(F)(F)F)cc12 [Compound 390]
100 to 1000 nM	100 to 1000 nM	–	–	–	–	–	–	< 100 nM	–	N#Cc1cnn2c1CN(c1nc(OC[C@@]34CCCN3C[C@H](F)C4)nc3c(F)c(-c4ccc(F)c5sc(N)c(C#N)c45)c(C(F)(F)F)cc13)CC2 [Compound 392]
100 to 1000 nM	100 to 1000 nM	–	–	–	–	–	–	< 100 nM	–	CC(=O)N1CC[C@@H](N(C)c2nc(OC[C@@]34CCCN3C[C@H](F)C4)nc3c(F)c(-c4ccc(F)c5sc(N)c(C#N)c45)c(Cl)cc23)[C@H]1C [Compound 398]
100 to 1000 nM	100 to 1000 nM	–	–	–	–	–	–	< 100 nM	–	C[C@@H]1[C@H](N(C)c2nc(OC[C@@]34CCCN3C[C@H](F)C4)nc3c(F)c(-c4ccc(F)c5sc(N)c(C#N)c45)c(C(F)(F)F)cc23)CC(=O)N1C [Compound 440]
100 to 1000 nM	100 to 1000 nM	–	–	–	–	–	–	< 100 nM	–	CCC(=O)N1C[C@@H](N(CC)c2nc(OC[C@@]34CCCN3C[C@H](F)C4)nc3c(F)c(-c4ccc(F)c5sc(N)c(C#N)c45)c(C(F)(F)F)cc23)C[C@H]1C [Compound 442]
< 100 nM	< 100 nM	–	–	–	–	–	–	< 100 nM	–	CCN(c1nc(OC[C@@]23CCCN2C[C@H](F)C3)nc2c(F)c(-c3ccc(F)c4sc(N)c(C#N)c34)c(C(F)(F)F)cc12)[C@H]1C[C@H](C)N(C(C)=O)C1 [Compound 463]
–	–	–	–	–	< 100 nM	< 100 nM	–	–	IC50 (SW620 cells (KRAS G12V); SW620 (KRAS G12V) cells, pERK HTRF, class symbols): < 100 nM	CCN(c1nc(OCC23CCCN2CC(F)C3)nc2c(F)c(-c3ccc(F)c4sc(N)c(C#N)c34)c(C(F)(F)F)cc12)C1CC(C)N(C(=O)N2CC(F)C2)C1 (stereo not drawn) [Compound 759]
